≈ marks a conversion by molar mass, not a printed value. Values belong to the molecule of their own block, whether it stands above or below them.
What was measured:
Test in all cases: ≥ marks a high value that may be exact or a test limit, other limits are often not marked, values filed in µg/mL are converted to µM
Escherichia coli 55B5 = system: Escherichia coli 55B5
Escherichia coli UB1005 = system: Escherichia coli UB1005
Pseudomonas aeruginosa = system: Pseudomonas aeruginosa
Salmonella typhimurium = system: Salmonella typhimurium
[1] = system: Achromobacter xylosoxidans
Candida albicans = system: Candida albicans
[2] = system: Pseudomonas aeruginosa ATCC 9027
[3] = system: Pseudomonas aeruginosa M1251
[4] = system: Pseudomonas aeruginosa M1426
[5] = system: Pseudomonas aeruginosa M76
[6] = system: Pseudomonas aeruginosa M917
[7] = system: Pseudomonas aeruginosa PAO1
[8] = system: Pseudomonas aeruginosa R70
Pseudomonas fluorescens = system: Pseudomonas fluorescens
Ralstonia pickettii = system: Ralstonia pickettii
[9] = system: Salmonella enterica serovar Typhimurium
[10] = system: Staphylococcus aureus ATCC 6538
Staphylococcus aureus = system: Staphylococcus aureus
[11] = system: Stenotrophomonas maltophilia
Bacillus subtilis C971 = system: Bacillus subtilis C971
[12] = system: Corynebacterium xerosis C875
[13] = system: Enterococcus faecalis C625
Escherichia coli DC2 = system: Escherichia coli DC2
[14] = system: Pseudomonas aeruginosa H187
[15] = system: Pseudomonas aeruginosa H188
[16] = system: Salmonella typhimurium C587
[17] = system: Salmonella typhimurium C610
[18] = system: Staphylococcus aureus ATCC 25923
[19] = system: Staphylococcus aureus SAP 0017
[20] = system: Staphylococcus epidermidis C621
[21] = system: Bacillus subtilis KCCM 11495
[22] = system: Escherichia coli KCCM 11569

MIC (Escherichia coli 55B5): 14.5 µM (≈ 36 µg/mL)
MIC (Escherichia coli UB1005): 15.5 µM (≈ 38.5 µg/mL)
MIC (Pseudomonas aeruginosa): 12.5 µM (≈ 31 µg/mL)
MIC (Salmonella typhimurium): 10.5 µM (≈ 26.1 µg/mL)
Structure (SMILES): CC[C@H](C)[C@H](NC(=O)[C@H](C)N)C(=O)N[C@@H](Cc1cnc[nH]1)C(=O)N[C@@H](CCCCN)C(=O)N[C@@H](CC(C)C)C(=O)N[C@@H](C)C(=O)N[C@@H](Cc1cnc[nH]1)C(=O)N[C@@H](CCCCN)C(=O)N[C@H](C(=O)N[C@@H](CC(C)C)C(=O)N[C@@H](CCCCN)C(=O)N[C@@H](CCCCN)C(=O)N[C@H](C(=O)N[C@@H](CC(C)C)C(=O)N[C@@H](CCCN=C(N)N)C(=O)N[C@@H](C)C(=O)N[C@H](C(=O)N[C@@H](CCCCN)C(=O)N[C@@H](CCCCN)C(=O)N[C@@H](CC(C)C)C(=O)N[C@@H](C)C(=O)N[C@@H](CC(N)=O)C(=O)O)C(C)C)[C@@H](C)O)[C@@H](C)O [AIHKLAHKTLKKTLRAVKKLAN]

MIC [1]: 3.89 µM (≈ 8 µg/mL)
MIC (Candida albicans): 15.6 µM (≈ 32 µg/mL)
MIC (Escherichia coli UB1005): 0.973 µM (≈ 2 µg/mL)
MIC [2]: 7.3 µM (≈ 15 µg/mL)
MIC [3]: 3.89 µM (≈ 8 µg/mL)
MIC [4]: 3.89 µM (≈ 8 µg/mL)
MIC [5]: 3.89 µM (≈ 8 µg/mL)
MIC [6]: 15.6 µM (≈ 32 µg/mL)
MIC [7]: 3.89 µM (≈ 8 µg/mL)
MIC [8]: 0.973 µM (≈ 2 µg/mL)
MIC (Pseudomonas aeruginosa): 7.78 µM (≈ 16 µg/mL)
MIC (Pseudomonas fluorescens): 3.89 µM (≈ 8 µg/mL)
MIC (Ralstonia pickettii): 1.95 µM (≈ 4 µg/mL)
MIC [9]: 3.89 µM (≈ 8 µg/mL)
MIC [10]: 7.3 µM (≈ 15 µg/mL)
MIC (Staphylococcus aureus): > 62.3 µM
MIC [11]: 0.486 µM (≈ 1 µg/mL)
Structure (SMILES): CC(C)C[C@H](NC(=O)[C@H](CCCCN)NC(=O)[C@H](CCCCN)NC(=O)[C@H](C)NC(=O)[C@H](CC(C)C)NC(=O)[C@H](CCCCN)NC(=O)[C@H](CCCCN)NC(=O)[C@H](CC(C)C)NC(=O)[C@H](CCCCN)NC(=O)[C@H](CCCCN)NC(=O)[C@H](C)NC(=O)[C@H](CC(C)C)NC(=O)[C@H](CCCCN)NC(=O)[C@H](CCCCN)NC(=O)[C@H](C)NC(=O)[C@@H](N)Cc1ccccc1)C(=O)N[C@@H](C)C(=O)N[C@@H](CCCCN)C(=O)O [FAKKLAKKLKKLAKKLAK]

Second part, the molecule before the results:

Structure (SMILES): CC[C@H](C)[C@H](NC(=O)[C@H](C)N)C(=O)N[C@@H](Cc1cnc[nH]1)C(=O)N[C@@H](CCCCN)C(=O)N[C@@H](CC(C)C)C(=O)N[C@@H](C)C(=O)N[C@@H](Cc1cnc[nH]1)C(=O)N[C@@H](CCCCN)C(=O)N[C@@H](CC(C)C)C(=O)N[C@@H](CC(C)C)C(=O)N1CCC[C@H]1C(=O)N[C@@H](CCCCN)C(=O)N[C@H](C(=O)N[C@@H](CC(C)C)C(=O)N[C@@H](CCCN=C(N)N)C(=O)N[C@@H](C)C(=O)N[C@H](C(=O)N[C@@H](CCCCN)C(=O)N[C@@H](CCCCN)C(=O)N[C@@H](CC(C)C)C(=O)N[C@@H](C)C(=O)N[C@@H](CC(N)=O)C(=O)O)C(C)C)[C@@H](C)O [AIHKLAHKLLPKTLRAVKKLAN]
MIC (Escherichia coli 55B5): 25 µM (≈ 61.6 µg/mL)
MIC (Escherichia coli UB1005): 20.5 µM (≈ 50.5 µg/mL)
MIC (Pseudomonas aeruginosa): 20.5 µM (≈ 50.5 µg/mL)
MIC (Salmonella typhimurium): 15.5 µM (≈ 38.2 µg/mL)

Structure (SMILES): CC(C)C[C@H](NC(=O)[C@H](C)NC(=O)[C@H](CCCCN)NC(=O)[C@H](CCCCN)NC(=O)[C@H](CC(C)C)NC(=O)[C@H](C)NC(=O)[C@H](CCCCN)NC(=O)[C@H](CCCCN)NC(=O)[C@H](CC(C)C)NC(=O)[C@H](CCCCN)NC(=O)[C@H](CCCCN)NC(=O)[C@H](CC(C)C)NC(=O)[C@H](C)NC(=O)[C@H](CCCCN)NC(=O)[C@H](CC(C)C)NC(=O)[C@H](C)NC(=O)[C@@H](N)Cc1ccccc1)C(N)=O [FALKALKKLKKALKKAL]
MIC [1]: ≥ 66.9 µM
MIC (Candida albicans): 8.37 µM (≈ 16 µg/mL)
MIC (Escherichia coli UB1005): 2.09 µM (≈ 4 µg/mL)
MIC [3]: 4.18 µM (≈ 8 µg/mL)
MIC [4]: 8.37 µM (≈ 16 µg/mL)
MIC [5]: 8.37 µM (≈ 16 µg/mL)
MIC [6]: 8.37 µM (≈ 16 µg/mL)
MIC [7]: 4.18 µM (≈ 8 µg/mL)
MIC [8]: 2.09 µM (≈ 4 µg/mL)
MIC (Pseudomonas aeruginosa): 4.18 µM (≈ 8 µg/mL)
MIC (Pseudomonas fluorescens): 2.09 µM (≈ 4 µg/mL)
MIC (Ralstonia pickettii): 2.09 µM (≈ 4 µg/mL)
MIC [9]: 4.18 µM (≈ 8 µg/mL)
MIC (Staphylococcus aureus): 4.18 µM (≈ 8 µg/mL)
MIC [11]: 2.09 µM (≈ 4 µg/mL)

Structure (SMILES): CC[C@H](C)[C@H](NC(=O)[C@H](C)NC(=O)[C@H](CCCCN)NC(=O)[C@H](CC(C)C)NC(=O)[C@H](C)NC(=O)[C@@H](NC(=O)[C@H](Cc1cnc[nH]1)NC(=O)[C@H](CC(C)C)NC(=O)[C@@H](NC(=O)[C@@H](NC(=O)[C@H](CCCCN)NC(=O)CNC(=O)[C@H](C)NC(=O)[C@H](CO)NC(=O)[C@H](CCCCN)NC(=O)[C@H](Cc1ccccc1)NC(=O)[C@@H](NC(=O)[C@H](CCCCN)NC(=O)[C@H](CC(C)C)NC(=O)[C@H](Cc1ccccc1)NC(=O)[C@H](CO)NC(=O)[C@H](CCCCN)NC(=O)[C@H](Cc1c[nH]c2ccccc12)NC(=O)[C@H](CCCCN)NC(C)=O)[C@@H](C)O)[C@@H](C)O)C(C)C)[C@@H](C)O)C(=O)N[C@@H](CO)C(=O)N[C@@H](CO)C(N)=O [KWKSFLKTFKSAGKTVLHTALKAISS]
MIC (Bacillus subtilis C971): 0.695 µM (≈ 2.03 µg/mL)
MIC [12]: 0.695 µM (≈ 2.03 µg/mL)
MIC [13]: 17.6 µM (≈ 51.5 µg/mL)
MIC (Escherichia coli DC2): 0.869 µM (≈ 2.54 µg/mL)
MIC (Escherichia coli UB1005): 0.869 µM (≈ 2.54 µg/mL)
MIC [14]: 2.22 µM (≈ 6.49 µg/mL)
MIC [15]: 3.51 µM (≈ 10.2 µg/mL)
MIC [16]: 1.74 µM (≈ 5.07 µg/mL)
MIC [17]: 0.869 µM (≈ 2.54 µg/mL)
MIC [18]: 8.82 µM (≈ 25.8 µg/mL)
MIC [19]: 3.51 µM (≈ 10.2 µg/mL)
MIC [20]: 1.11 µM (≈ 3.25 µg/mL)

Structure (SMILES): CC[C@H](C)[C@H](NC(=O)[C@H](C)NC(=O)[C@H](CCCCN)NC(=O)[C@H](CC(C)C)NC(=O)[C@H](C)NC(=O)[C@@H](NC(=O)[C@H](Cc1cnc[nH]1)NC(=O)[C@H](CC(C)C)NC(=O)[C@@H](NC(=O)[C@@H](NC(=O)[C@H](CCCCN)NC(=O)[C@@H](NC(=O)[C@H](C)NC(=O)[C@@H](NC(=O)[C@H](CCCCN)NC(=O)[C@H](Cc1ccccc1)NC(=O)[C@@H](NC(=O)[C@H](CCCCN)NC(=O)[C@H](CC(C)C)NC(=O)[C@H](Cc1ccccc1)NC(=O)[C@H](CO)NC(=O)[C@H](CCCCN)NC(=O)[C@H](Cc1c[nH]c2ccccc12)NC(=O)[C@H](CCCCN)NC(C)=O)[C@@H](C)O)C(C)C)C(C)C)[C@@H](C)O)C(C)C)[C@@H](C)O)C(=O)N[C@@H](CO)C(=O)N[C@@H](CO)C(N)=O [KWKSFLKTFKVAVKTVLHTALKAISS]
MIC (Bacillus subtilis C971): 0.853 µM (≈ 2.54 µg/mL)
MIC [12]: 0.443 µM (≈ 1.32 µg/mL)
MIC [13]: 6.89 µM (≈ 20.5 µg/mL)
MIC (Escherichia coli DC2): 1.36 µM (≈ 4.06 µg/mL)
MIC (Escherichia coli UB1005): 2.18 µM (≈ 6.49 µg/mL)
MIC [14]: 3.44 µM (≈ 10.2 µg/mL)
MIC [15]: 6.89 µM (≈ 20.5 µg/mL)
MIC [16]: 10.9 µM (≈ 32.4 µg/mL)
MIC [17]: 1.71 µM (≈ 5.07 µg/mL)
MIC [18]: 5.46 µM (≈ 16.2 µg/mL)
MIC [19]: 4.33 µM (≈ 12.9 µg/mL)
MIC [20]: 2.73 µM (≈ 8.11 µg/mL)

Structure (SMILES): CC(C)C[C@H](NC(=O)CNC(=O)[C@H](Cc1cnc[nH]1)NC(=O)[C@H](Cc1cnc[nH]1)NC(=O)[C@H](CC(C)C)NC(=O)[C@H](CC(C)C)NC(=O)[C@H](C)NC(=O)[C@H](CC(N)=O)NC(=O)[C@H](CC(C)C)NC(=O)[C@@H](N)Cc1c[nH]c2ccccc12)C(=O)N[C@@H](CC(N)=O)C(=O)N[C@@H](CS)C(=O)N[C@@H](C)C(N)=O [WLNALLHHGLNCA]
MIC [21]: ≥ 43.8 µM
MIC [22]: ≥ 43.8 µM

— DBAASP
